Experimental data reported in patent US12226405B2, “Compounds and compositions for inhibiting the activity of HIF2-alpha and their methods of use” (Novartis AG, priority 2020, dated 2025).

Assays:
[1] = biological target: HIF2α PAS-B domain (236-350, biotinylated on the N-terminus) (Homo sapiens (Human), UniProt Q99814)
Procedure: The assay buffer contained 50 mM Tris-HCl pH7 (Sigma), 20 mM NaCl (Fluka), 0.02% BSA (Sigma), 0.005% Triton X-100 (Pierce) and 1 mM DTT (Fluka). After a 30 min incubation period, 5 μL Streptavidin PVT SPA Beads (Perkin Elmer) at 1.2 mg/mL, diluted in the buffer, were added.

[2] = tested on: HIF2α-regulated expression of the endogenous target gene hEGLN3 in 786-O cells; assay: Cellular iScript assay for HIF2α (quantitative RT-PCR of hEGLN3); format: cell-based, human; conditions: Homo sapiens, 786-0, 48 hours incubation
Procedure, shortened: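 786-O cells were exposed to eleven 2-fold compound dilutions for 48 h at 37° C. Lysates underwent one-step TaqMan qRT-PCR for hEGLN3 with beta-actin as reference; 2^(−ΔΔCt) versus DMSO, as % of control, was fit with a four-parameter model to give IC50.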

[3] = tested on: HIF2α-dependent transcription in 786-O-HRE-Luc cells; assay: In vitro cellular hypoxia response element (HRE) reporter gene assay (RGA) for HIF2α; format: cell-based, human; conditions: Homo sapiens, 24 hours incubation
Procedure, shortened: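 Renal carcinoma cells carrying a 4×HRE-driven PEST-destabilised firefly luciferase were treated a day after seeding with eleven 2-fold compound dilutions (0.1% DMSO) for 24 h at 37° C. BrightGlo luminescence, background-subtracted and expressed as % of DMSO control, was fitted four-parametrically for IC50.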

Chain of HIF2α PAS-B domain (236-350, biotinylated on the N-terminus) (Q99814 236-350): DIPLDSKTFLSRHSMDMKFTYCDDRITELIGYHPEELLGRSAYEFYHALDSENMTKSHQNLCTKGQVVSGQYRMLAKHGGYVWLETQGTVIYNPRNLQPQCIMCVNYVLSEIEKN

Q: What does the source list for COC1=CC(C(F)(F)F)=CN2C[C@@]3(CCC(F)(F)c4c3ccnc4Cl)N=C12 [Example 30, (S)-1′-chloro-8′,8′-difluoro-8-methoxy-6-(trifluoromethyl)-7′,8′-dihydro-3H,6′H-spiro[imidazo[1,2-a]pyridine-2,5′-isoquinoline]]?
A: IC50 [1]: 27 nM; IC50 [2]: 129 nM; IC50 [3]: 1350 nM

Q: Which results are given for Cc1nccc2c1C(F)(F)CC[C@@]21CN2C=C(C(F)(F)F)C=C(OC(F)F)C2=N1 [Example 32, (S)-8-(difluoromethoxy)-8′,8′-difluoro-1′-methyl-6-(trifluoromethyl)-7′,8′-dihydro-3H,6′H-spiro[imidazo[1,2-a]pyridine-2,5′-isoquinoline]]?
A: IC50 [1]: 13 nM; IC50 [2]: 78 nM; IC50 [3]: 861 nM

Q: How did the IC50 [1] turn out when [2H]C([2H])([2H])c1nccc2c1C(F)(F)CC[C@@]21CN2C=C(C(F)(F)F)C=C(OC(F)F)C2=N1 [Example 33, (S)-8-(difluoromethoxy)-8′,8′-difluoro-1′-(methyl-d3)-6-(trifluoromethyl)-7′,8′-dihydro-3H, 6′H-spiro[imidazo[1,2-a]pyridine-2,5′-isoquinoline]] was run?
A: The IC50 was 17 nM.

Q: And the IC50 [2]?
A: The IC50 was 78 nM.

Q: What about the IC50 [3] of the same compound?
A: The IC50 was 547 nM.

Q: For COc1nccc2c1C(F)(F)CC[C@@]21CN2C=C(C(F)(F)F)C=C(OC(F)F)C2=N1 [Example 34, (S)-8-(difluoromethoxy)-8′,8′-difluoro-1′-methoxy-6-(trifluoromethyl)-7′,8′-dihydro-3H, 6′H-spiro[imidazo[1,2-a]pyridine-2,5′-isoquinoline]], which IC50 [1] is on record?
A: Its IC50 is 23 nM.

Q: What about the IC50 [2] of the same compound?
A: Its IC50 is 197 nM.

Q: What about the IC50 [3] of the same compound?
A: Its IC50 is 1430 nM.

Q: For N#CC1=CN2C[C@@]3(CCCc4cc(F)ccc43)N=C2C(OC(F)F)=C1 [Example 35, (S)-8-(difluoromethoxy)-6′-fluoro-3′,4′-dihydro-2′H,3H-spiro[imidazo[1,2-a]pyridine-2,1′-naphthalene]-6-carbonitrile], which IC50 [1] is on record?
A: Its IC50 is 9 nM.

Q: What about the IC50 [2] of the same compound?
A: The IC50 was 83 nM.

Q: What about the IC50 [3] of the same compound?
A: Its IC50 is 267 nM.

Q: How did the IC50 [1] turn out when FC(F)OC1=CC(C(F)(F)F)=CN2C[C@@]3(CCCc4c3ccnc4Cl)N=C12 [Example 36, (S)-1′-chloro-8-(difluoromethoxy)-6-(trifluoromethyl)-7′,8′-dihydro-3H,6′H-spiro[imidazo[1,2-a]pyridine-2,5′-isoquinoline]] was run?
A: Its IC50 is 6 nM.

Q: What about the IC50 [2] of the same compound?
A: Its IC50 is 73 nM.

Q: And the IC50 [3]?
A: The IC50 was 147 nM.

Q: Which IC50 [1] does the source give for FC(F)OC1=CC(C(F)(F)F)=CN2C[C@@]3(CCCc4cc(Cl)ncc43)N=C12 [Example 37, (S)-3′-chloro-8-(difluoromethoxy)-6-(trifluoromethyl)-6′,7′-dihydro-3H,5′H-spiro[imidazo[1,2-a]pyridine-2,8′-isoquinoline]] here?
A: The IC50 was 25 nM.

Q: And the IC50 [2]?
A: Its IC50 is 89 nM.

Q: What about the IC50 [3] of the same compound?
A: The IC50 was 308 nM.

Q: Which IC50 [1] does the source give for N#Cc1ccc2c(c1)CCC[C@@]21CN2C=C(C(F)(F)F)C=C(OC(F)F)C2=N1 [Example 38, (S)-8-(difluoromethoxy)-6-(trifluoromethyl)-3′,4′-dihydro-2′H,3H-spiro[imidazo[1,2-a]pyridine-2,1′-naphthalene]-6′-carbonitrile] here?
A: Its IC50 is 12 nM.

Q: What about the IC50 [2] of the same compound?
A: Its IC50 is 84 nM.

Q: And the IC50 [3]?
A: The IC50 was 322 nM.

Q: Which IC50 [1] does the source give for Fc1c(Br)ccc2c1OCC[C@@]21CN2C=C(C(F)(F)F)C=C(OC(F)F)C2=N1 [Example 39, (S)-7-bromo-8′-(difluoromethoxy)-8-fluoro-6′-(trifluoromethyl)-3′H-spiro[chroman-4,2′-imidazo[1,2-a]pyridine]] here?
A: The IC50 was at most 6 nM.

Q: What about the IC50 [2] of the same compound?
A: Its IC50 is 49 nM.

Q: And the IC50 [3]?
A: Its IC50 is 251 nM.

Q: Which IC50 [1] does the source give for Fc1c(C(F)(F)F)ccc2c1OCC[C@@]21CN2C=C(C(F)(F)F)C=C(OC(F)F)C2=N1 [Example 40, (S)-8′-(difluoromethoxy)-8-fluoro-6′,7-bis(trifluromethyl)-3′H-spiro[chroman-4,2′-imidazo[1,2-a]pyridine]] here?
A: Its IC50 is 6 nM.

Q: What about the IC50 [2] of the same compound?
A: Its IC50 is 50 nM.

Q: What about the IC50 [3] of the same compound?
A: Its IC50 is 190 nM.

Q: With FC(F)OC1=CC(C(F)(F)F)=CN2C[C@@]3(CCOc4cc(Cl)ccc43)N=C12 [Example 41, (S)-7-chloro-8′-(difluoromethoxy)-6′-(trifluoromethyl)-3′H-spiro[chroman-4,2′-imidazo[1,2-a]pyridine]] as the compound, how does the IC50 [1] read?
A: The IC50 was 11 nM.

Q: And the IC50 [2]?
A: Its IC50 is 54 nM.

Q: What about the IC50 [3] of the same compound?
A: The IC50 was 283 nM.

Q: What does the source list for FCOC1=CC(C(F)(F)F)=CN2C[C@@]3(CCOc4c3ccc(Br)c4F)N=C12 [Example 42, (S)-7-bromo-8-fluoro-8′-(fluoromethoxy)-6′-(trifluoromethyl)-3′H-spiro[chroman-4,2′-imidazo[1,2-a]pyridine]]?
A: IC50 [1]: 8 nM; IC50 [2]: 72 nM; IC50 [3]: 96 nM

Q: Which IC50 [1] does the source give for Fc1c(Cl)ccc2c1OCC[C@@]21CN2C=C(C(F)(F)F)C=C(OC(F)F)C2=N1 [Example 43, (S)-7-chloro-8′-(difluoromethoxy)-8-fluoro-6′-(trifluoromethyl)-3′H-spiro[chroman-4,2′-imidazo[1,2-a]pyridine]] here?
A: The IC50 was 10 nM.

Q: And the IC50 [2]?
A: The IC50 was 59 nM.

Q: And the IC50 [3]?
A: The IC50 was 180 nM.

Q: Which results are given for Fc1ccc2c(c1F)OCC[C@@]21CN2C=C(C(F)(F)F)C=C(OC(F)F)C2=N1 [Example 45, (S)-8′-(difluoromethoxy)-7,8-difluoro-6′-(trifluoromethyl)-3′H-spiro[chroman-4,2′-imidazo[1,2-a]pyridine]]?
A: IC50 [1]: ≤ 10 nM; IC50 [2]: 85 nM; IC50 [3]: 313 nM

Q: Which results are given for Cc1ccc2c(c1F)OCC[C@@]21CN2C=C(C(F)(F)F)C=C(OC(F)F)C2=N1 [Example 46, (S)-8′-(difluoromethoxy)-8-fluoro-7-methyl-6′-(trifluoromethyl)-3′H-spiro[chroman-4,2′-imidazo[1,2-a]pyridine]]?
A: IC50 [1]: 13 nM; IC50 [2]: 50 nM; IC50 [3]: 68 nM

Q: Which IC50 [1] does the source give for Fc1cccc2c1OCC[C@@]21CN2C=C(C(F)(F)F)C=C(OC(F)F)C2=N1 [Example 47, (S)-8′-(difluoromethoxy)-8-fluoro-6′-(trifluoromethyl)-3′H-spiro[chroman-4,2′-imidazo[1,2-a]pyridine]] here?
A: Its IC50 is 11 nM.

Q: What about the IC50 [2] of the same compound?
A: The IC50 was 82 nM.

Q: What about the IC50 [3] of the same compound?
A: The IC50 was 694 nM.

Q: What does the source list for FC(F)OC1=CC(C(F)(F)F)=CN2C[C@@]3(CCOc4c(Cl)cccc43)N=C12 [Example 48, (S)-8-chloro-8′-(difluoromethoxy)-6′-(trifluoromethyl)-3′H-spiro[chroman-4,2′-imidazo[1,2-a]pyridine]]?
A: IC50 [1]: ≤ 10 nM; IC50 [2]: 63 nM; IC50 [3]: 974 nM

Q: Which results are given for N#CC1=CN2C[C@@]3(CCOc4c3ccc(Br)c4F)N=C2C(OC(F)F)=C1 [Example 49, (S)-7-bromo-8′-(difluoromethoxy)-8-fluoro-3′H-spiro[chroman-4,2′-imidazo[1,2-a]pyridine]-6′-carbonitrile]?
A: IC50 [1]: 12 nM; IC50 [2]: 173 nM; IC50 [3]: 979 nM

Q: How did the IC50 [1] turn out when FC(F)OC1=CC(C(F)(F)F)=CN2C[C@@]3(CCOc4cc(Br)ccc43)N=C12 [Example 50, (S)-7-bromo-8′-(difluoromethoxy)-6′-(trifluoromethyl)-3′H-spiro[chroman-4,2′-imidazo[1,2-a]pyridine]] was run?
A: The IC50 was at most 10 nM.

Q: What about the IC50 [2] of the same compound?
A: The IC50 was 61 nM.

Q: What about the IC50 [3] of the same compound?
A: Its IC50 is 153 nM.

Q: For N#CC1=CN2C[C@@]3(CCOc4c3ccc(I)c4F)N=C2C(OC(F)F)=C1 [Example 51, (S)-8′-(difluoromethoxy)-8-fluoro-7-iodo-3′H-spiro[chroman-4,2′-imidazo[1,2-a]pyridine]-6′-carbonitrile], which IC50 [1] is on record?
A: Its IC50 is 9 nM.

Q: What about the IC50 [2] of the same compound?
A: Its IC50 is 81 nM.

Q: And the IC50 [3]?
A: Its IC50 is 509 nM.

Q: How did the IC50 [1] turn out when Fc1c(Br)ccc2c1OCC[C@@]21CN2C=C(Cl)C=C(OC(F)F)C2=N1 [Example 52, (S)-7-bromo-6′-chloro-8′-(difluoromethoxy)-8-fluoro-3′H-spiro[chroman-4,2′-imidazo[1,2-a]pyridine]] was run?
A: The IC50 was 11 nM.

Q: What about the IC50 [2] of the same compound?
A: The IC50 was 87 nM.

Q: What about the IC50 [3] of the same compound?
A: Its IC50 is 416 nM.
